Results as given in patent publication US6897230B2, “Bicyclo[3/1/0] hexane containing oxazolidinone antibiotics and derivatives thereof” (Kyorin Pharmaceutical Co., Ltd., priority 2001, dated 2005).
Converted amounts (≈) assume the structure as drawn. Where a name gives a salt, the structure may show the parent alone.

Assays:
[1] = system: Staphylococcus aureus Smith; experiment: MIC, agar dilution method; format: cell-based; conditions: Mueller-Hinton agar, 35 C, 24 hours
Procedure: (§1) The following in vitro results were obtained based on an agar dilution method except for C. pneumoniae. The activity is presented as the minimum inhibitory concentration (MIC).
(§2) S. aureus and M. catarrhalis were tested on Mueller-Hinton agar, using an approximate inoculum of 1×10^4 cfu/spot an incubation temperature of 35 C. for 24 hours. The MIC was defined as the lowest concentration at which no visible bacterial growth was observed.

[2] = system: Staphylococcus aureus CR (chloramphenicol resistant); experiment: MIC, agar dilution method; format: cell-based; conditions: Mueller-Hinton agar, 35 C, 24 hours
Procedure: as §1, §2

[3] = system: Staphylococcus aureus MR (methicillin resistant); experiment: MIC, agar dilution method; format: cell-based; conditions: Mueller-Hinton agar, 35 C, 24 hours
Procedure: as §1, §2

[4] = system: Moraxella catarrhalis ATCC25238; experiment: MIC, agar dilution method; format: cell-based; conditions: Mueller-Hinton agar, 35 C, 24 hours
Procedure: as §1, §2

[5] = system: Streptococcus pneumoniae IID553; experiment: MIC, agar dilution method; format: cell-based; conditions: Mueller-Hinton agar with 5% defibrinated horse blood, 5% CO2, 24 hours
Procedure: as §1
(§3) Streptococci and enterococci were tested on Mueller-Hinton agar supplemented with 5% defibrinated horse blood, using an approximate inoculum of 1×10^4 cfu/spot an incubation temperature of 35° C. in an atmosphere of 5% CO2 for 24 hours. The MIC was defined as the lowest concentration at which no visible bacterial growth was observed.

[6] = system: Streptococcus pneumoniae PRQR (penicillin resistant, quinolone resistant); experiment: MIC, agar dilution method; format: cell-based; conditions: Mueller-Hinton agar with 5% defibrinated horse blood, 5% CO2, 24 hours
Procedure: as §1, §3

[7] = system: Enterococcus faecium VRQR (vancomycin resistant, quinolone resistant); experiment: MIC, agar dilution method; format: cell-based; conditions: Mueller-Hinton agar with 5% defibrinated horse blood, 5% CO2, 24 hours
Procedure: as §1, §3

[8] = system: Streptococcus pyogenes IID692; experiment: MIC, agar dilution method; format: cell-based; conditions: Mueller-Hinton agar with 5% defibrinated horse blood, 5% CO2, 24 hours
Procedure: as §1, §3

[9] = system: Chlamydia pneumoniae ATCC VR-1360; experiment: MIC, inclusion formation in infected HeLa 229 cells; format: cell-based; conditions: ATCCVR1360, 72 hours, lowest concentration with no inclusion
Procedure: as §1
C. pneumoniae was tested using minimum essential medium supplemented with 10% heat-inactivated fetal bovine serum, 2 mM L-glutamine, […] cycloheximide and non essential amino acid. HeLa 229 cells were inoculated with 10^4 inclusion-forming units of C. pneumoniae strain per mL. Infected cells were incubated with test compounds in complete medium at 35C in an atmosphere of 5% CO2 for 72 hours. […] The MIC was defined as the lowest concentration at which no inclusion was observed.

SMILES | MIC [1] [mg/L] | MIC [2] [mg/L] | MIC [3] [mg/L] | MIC [4] [mg/L] | MIC [5] [mg/L] | MIC [6] [mg/L] | MIC [7] [mg/L] | MIC [8] [mg/L] | MIC [9] [mg/L] | melting point [°C]
CC(=O)NC[C@H]1CN(c2ccc(N3C[C@@H]4[C@@H](C#N)[C@@H]4C3)c(F)c2)C(=O)O1 [Example 46, N-[5(S)-3-[4-[(1α,5α,6α)-6-Cyano-3-azabicyclo[3.1.0]hexan-3-yl]-3-fluorophenyl]-2-oxooxazolidin-5-ylmethyl]acetamide] | 0.25 (≈ 0.698 µM) | 1 (≈ 2.79 µM) | 0.25 (≈ 0.698 µM) | 2 (≈ 5.58 µM) | 0.5 (≈ 1.4 µM) | 0.25 (≈ 0.698 µM) | 0.5 (≈ 1.4 µM) | 0.25 (≈ 0.698 µM) | – | –
CC(=O)NC[C@H]1CN(c2ccc(N3CCOCC3)c(F)c2)C(=O)O1 [Linezolid, reference compound] | 1 (≈ 2.96 µM) | 16 (≈ 47.4 µM) | 1 (≈ 2.96 µM) | 4 (≈ 11.9 µM) | 2 (≈ 5.93 µM) | 1 (≈ 2.96 µM) | 2 (≈ 5.93 µM) | 1 (≈ 2.96 µM) | 8 (≈ 23.7 µM) | –
CC(=O)NC[C@H]1CN(c2ccc(C3=C[C@@H]4[C@@H](N)[C@@H]4C3)c(F)c2)C(=O)O1 (as salt: hydrochloride) [Example 50, N-[5(S)-3-[4-[(1α,5α,6α)-6-Aminobicyclo[3.1.0]hex-2-en-3-yl]-3-fluorophenyl]-2-oxooxazolidin-5-ylmethyl]acetamide Hydrochloride] | – | – | – | – | – | – | – | – | – | 215 to 220
CC(=O)NC[C@H]1CN(c2ccc(N3C[C@@H]4[C@@H](N)[C@@H]4C3)c(F)c2)C(=O)O1 [Example 8, N-[5(S)-3-[4-[(1α,5α,6α)-6-Amino-3-azabicyclo[3.1.0]hexan-3-yl]-3-fluorophenyl]-2-oxooxazolidin-5-ylmethyl]acetamide] | 0.5 (≈ 1.44 µM) | 4 (≈ 11.5 µM) | 1 (≈ 2.87 µM) | – | 1 (≈ 2.87 µM) | 1 (≈ 2.87 µM) | 2 (≈ 5.74 µM) | 0.5 (≈ 1.44 µM) | 0.5 (≈ 1.44 µM) | –

Next, values leading:

MIC [1] [mg/L] | MIC [2] [mg/L] | MIC [3] [mg/L] | MIC [4] [mg/L] | MIC [5] [mg/L] | MIC [6] [mg/L] | MIC [7] [mg/L] | MIC [8] [mg/L] | MIC [9] [mg/L] | melting point [°C] | SMILES
0.06 (≈ 0.166 µM) | 0.5 (≈ 1.38 µM) | 0.016 (≈ 0.0443 µM) | 2 (≈ 5.53 µM) | 0.5 (≈ 1.38 µM) | 0.5 (≈ 1.38 µM) | 0.5 (≈ 1.38 µM) | 0.5 (≈ 1.38 µM) | – | – | CC(=O)NC[C@H]1CN(c2ccc(N3C[C@@H]4[C@@H](C=O)[C@@H]4C3)c(F)c2)C(=O)O1 [Example 22, N-[5(S)-3-[3-Fluoro-4-[(1α,5α,6α)-6-formyl-3-azabicyclo[3.1.0]hexan-3-yl]phenyl]-2-oxooxazolidin-5-ylmethyl]acetamide]
0.06 (≈ 0.159 µM) | 0.5 (≈ 1.33 µM) | 0.06 (≈ 0.159 µM) | 4 (≈ 10.6 µM) | 0.5 (≈ 1.33 µM) | 0.5 (≈ 1.33 µM) | 0.5 (≈ 1.33 µM) | 0.5 (≈ 1.33 µM) | – | – | CC(=O)NC[C@H]1CN(c2ccc(N3C[C@@H]4[C@@H](/C=N/O)[C@@H]4C3)c(F)c2)C(=O)O1 [Example 41, (E)-N-[5(S)-3-[3-Fluoro-4-[(1α,5α,6α)-6-[(hydroxyimino)methyl]-3-azabicyclo[3.1.0]hexan-3-yl]phenyl]-2-oxooxazolidin-5-ylmethyl]acetamide]
